Reference: patent publication US20120232070A1, “Use of Indole Derivatives as Nurr-1 Activators for the Application Thereof as a Medicament for the Treatment of Parkinson's Disease” (Laboratoires Fournier SA, priority 2009, published 2012)

What was measured:
[1] = target: hNurr1_RXRγFL (NURR1/RXRγ heterodimer) (Homo sapiens, UniProt P43354+P48443); assay: Transactivation assay in Cos-7 cells, NURR-1-Gal4 / RXRγ, luciferase reporter; assay type: cell-based; conditions: for Emax: COS-7, read-out: hNurr1_RXRγFL Eff (%), efficacy in % relative to the reference XCT0135908 at 2·10^−5 M (=100%); for EC50: Cos-7 cells, overnight incubation
hNurr1_RXRγFL (NURR1/RXRγ heterodimer), sequence (P43354 328-598): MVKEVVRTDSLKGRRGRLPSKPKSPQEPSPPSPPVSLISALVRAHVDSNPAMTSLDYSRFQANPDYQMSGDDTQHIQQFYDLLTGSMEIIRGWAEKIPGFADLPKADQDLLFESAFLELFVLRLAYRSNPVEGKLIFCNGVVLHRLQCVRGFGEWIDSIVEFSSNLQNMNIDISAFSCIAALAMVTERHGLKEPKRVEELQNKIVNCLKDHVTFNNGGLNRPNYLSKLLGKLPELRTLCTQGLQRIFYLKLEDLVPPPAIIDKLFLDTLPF
hNurr1_RXRγFL (NURR1/RXRγ heterodimer), sequence (P48443 whole entry, the tested form may be a part): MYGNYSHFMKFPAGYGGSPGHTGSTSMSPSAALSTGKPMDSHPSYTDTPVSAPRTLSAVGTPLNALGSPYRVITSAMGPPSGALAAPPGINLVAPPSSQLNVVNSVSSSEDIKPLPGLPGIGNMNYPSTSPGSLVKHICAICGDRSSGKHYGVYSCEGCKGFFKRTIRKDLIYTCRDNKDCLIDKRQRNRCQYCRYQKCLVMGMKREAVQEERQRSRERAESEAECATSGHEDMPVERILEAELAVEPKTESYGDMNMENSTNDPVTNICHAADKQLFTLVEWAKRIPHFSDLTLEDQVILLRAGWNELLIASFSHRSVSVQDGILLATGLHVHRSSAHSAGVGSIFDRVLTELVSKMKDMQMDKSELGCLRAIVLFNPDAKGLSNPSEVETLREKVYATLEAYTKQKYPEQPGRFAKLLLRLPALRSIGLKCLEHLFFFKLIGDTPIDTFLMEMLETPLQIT
Outline: (§1)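 Cos-7 cells co-transfected with human NURR-1-Gal4 chimera, human RXRα or RXRγ, and 5Gal4pGL3-TK-Luc reporter; compounds added at 10^−4 to 3·10^−10 M final, overnight incubation, luciferase read. Induction over each heterodimer's baseline expressed as % of reference RXR agonist XCT0135908 (2·10^−5 M) taken as 100%.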

[2] = target: hNurr1_RXRαFL (NURR1/RXRα heterodimer) (Homo sapiens, UniProt P19793+P43354); assay: Transactivation assay in Cos-7 cells, NURR-1-Gal4 / RXRα, luciferase reporter; assay type: cell-based; conditions: for Emax: COS-7, read-out: hNurr1_RXRαFL Eff (%), efficacy in % relative to the reference XCT0135908 at 2·10^−5 M (=100%); for EC50: Cos-7 cells, overnight incubation
hNurr1_RXRαFL (NURR1/RXRα heterodimer), sequence (P19793 whole entry, the tested form may be a part): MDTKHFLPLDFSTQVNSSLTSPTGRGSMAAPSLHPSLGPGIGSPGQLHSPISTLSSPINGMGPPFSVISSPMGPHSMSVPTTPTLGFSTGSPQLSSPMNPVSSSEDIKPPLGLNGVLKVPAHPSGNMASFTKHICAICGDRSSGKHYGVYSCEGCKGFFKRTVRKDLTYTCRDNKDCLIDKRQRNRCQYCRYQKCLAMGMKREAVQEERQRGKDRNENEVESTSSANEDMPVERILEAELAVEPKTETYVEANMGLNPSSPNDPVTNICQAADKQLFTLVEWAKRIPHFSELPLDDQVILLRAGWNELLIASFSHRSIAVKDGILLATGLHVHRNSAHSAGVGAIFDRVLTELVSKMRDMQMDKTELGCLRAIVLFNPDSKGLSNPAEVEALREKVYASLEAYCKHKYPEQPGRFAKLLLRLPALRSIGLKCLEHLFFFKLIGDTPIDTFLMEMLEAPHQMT
hNurr1_RXRαFL (NURR1/RXRα heterodimer), sequence (P43354 328-598): as the sequence (P43354 328-598) above
Outline: as §1

| Structure (SMILES) | Emax [1] [%] | EC50 [1] [nM] | Emax [2] [%] | EC50 [2] [nM] |
| --- | --- | --- | --- | --- |
| CC(C)(C)c1cccc(S(=O)(=O)n2c(Cc3ccc(C(=O)O)cn3)cc3cc(C(F)(F)F)ccc32)c1 [Example 66] | 79 | 110 | 80 | 71 |
| CC(C)COc1ccc(S(=O)(=O)n2c(Cc3ccc(C(=O)O)cc3)cc3cc(C(F)(F)F)ccc32)cc1 [Example 127, 4-[[1-[4-isobutoxy-phenylsulfonyl]-5-(trifluoromethyl)-1H-indol-2-yl]methyl]benzoic acid] | 45 | 575 | 48 | 263 |
| Cc1cc(C)n(-c2ccc(S(=O)(=O)n3c(Cc4ccc(C(=O)O)cc4)cc4cc(C(F)(F)F)ccc43)cc2)n1 [Example 131, 4-[[1-[4-(3,5-dimethyl-pyrazol-1-yl)-phenylsulfonyl]-5-(trifluoromethyl)-1H-indol-2-yl]methyl]benzoic acid] | 21 | 1480 | 30 | 603 |
| O=C(O)c1ccc(Cc2cc3cc(Cl)ccc3n2S(=O)(=O)c2ccc(-c3ccccc3)cc2)cc1 [Example 151, 4-[[1-[biphenyl-4-sulfonyl]-5-(chloro)-1H-indol-2-yl]methyl]benzoic acid] | 17 | > 10000 | 80 | 427 |
| CC(C)CCc1ccc(S(=O)(=O)n2c(Cc3ccc(C(=O)O)cc3)cc3cc(C(F)(F)F)ccc32)cc1 [Example 128, 4-[[1-[4-(3-methyl-butyl)-phenylsulfonyl]-5-(trifluoromethyl)-1H-indol-2-yl]methyl]benzoic acid] | 36 | 1590 | 44 | 337 |
| Cc1c(Cc2cccc(C(=O)O)c2)n(S(=O)(=O)c2cccc(C(C)(C)C)c2)c2ccc(C(F)(F)F)cc12 [Example 186, 3-[[1-[[3-(1,1-dimethylethyl)phenyl]sulfonyl]-3-methyl-5-(trifluoromethyl)-1H-indol-2-yl]methyl]-benzoic acid] | 68 | 288 | 93 | 124 |
| O=C(O)c1ccc(Cc2cc3cc(C(F)(F)F)ccc3n2S(=O)(=O)c2ccsc2)cc1 [Example 16, 4-[[1-(3-thienylsulfonyl)-5-(trifluoromethyl)-1H-indol-2-yl]methyl]benzoic acid] | 45 | 628 | 66 | 617 |
| CC(C)(C)c1cccc(S(=O)(=O)n2c(Cc3ccc(F)c(C(=O)O)c3)cc3cc(C(F)(F)F)ccc32)c1 [Example 210, 3-[[1-[[3-(1,1-dimethylethyl)-phenyl]sulfonyl]-5-trifluoromethyl-1H-indol-2-yl]methyl]-6-fluorobenzoic acid] | 68 | 81 | 70 | 69 |
| COc1ccc(S(=O)(=O)n2c(Cc3ccc(C(=O)O)cc3)cc3cc(C(F)(F)F)ccc32)cn1 [Example 120, 4-[[1-[(6-methoxy-3-pyridinyl)sulfonyl]-5-(trifluoromethyl)-1H-indol-2-yl]methyl]benzoic acid] | 49 | 661 | 68 | 202 |
| CCc1ccc(S(=O)(=O)n2c(Cc3ccc(C(=O)O)cc3)cc3cc(C(F)(F)F)ccc32)cc1 [Example 133, 4-[[1-[4-ethyl-phenylsulfonyl]-5-(trifluoromethyl)-1H-indol-2-yl]methyl]benzoic acid] | 38 | 304 | 49 | 177 |
| COC(=O)c1ccc(Cc2cc3cc(C(F)(F)F)ccc3n2S(=O)(=O)c2cccc(C(C)(C)C)c2)s1 [Example 190, 5-[[1-[[3-(1,1-dimethylethyl)-phenyl]sulfonyl]-5-trifluoromethyl-1H-indol-2-yl]-methyl]-thiophene-2-carboxylic acid, methyl ester] | 107 | 13 | 97 | 0.2 |
| CCCc1ccc(S(=O)(=O)n2c(Cc3ccc(C(=O)O)cc3)cc3cc(Cl)ccc32)cc1 [Example 152, 4-[[1-[4-propyl-phenylsulfonyl]-5-(chloro)-1H-indol-2-yl]methyl]benzoic acid] | 75 | 858 | 87 | 269 |
| Cc1cc(Cc2cc3cc(C(F)(F)F)ccc3n2S(=O)(=O)c2cccc(C(C)(C)C)c2)c(F)cc1C(=O)O [Example 196, 4-[[1-[[3-(1,1-dimethylethyl)phenyl]sulfonyl]-5-trifluoromethyl-1H-indol-2-yl]methyl]-5-fluoro-2-methyl-benzoic acid] | 91 | 479 | 90 | 240 |
| CN1C(=O)COc2ccc(S(=O)(=O)n3c(Cc4ccc(C(=O)O)cc4)cc4cc(C(F)(F)F)ccc43)cc21 [Example 125, 4-[[1-[4-methyl-3-oxo-3,4-dihydro-2H-benzo[1,4]oxazine-6-sulfonyl]-5-(trifluoromethyl)-1H-indol-2-yl]methyl]benzoic acid] | 101 | 724 | 61 | 808 |
| O=C(O)c1ccc(Cc2cc3cc(C(F)(F)F)ccc3n2S(=O)(=O)c2ccc(F)cc2)cc1 [Example 137, 4-[[1-[4-fluoro-phenylsulfonyl]-5-(trifluoromethyl)-1H-indol-2-yl]methyl]benzoic acid] | 18 | 730 | 37 | 529 |
| COC(=O)c1ccc(Cc2cc3cc(Cl)ccc3n2S(=O)(=O)c2ccc(C(C)C)cc2)cc1 [Example 40, 4-[[5-chloro-1-[[4-(1-methylethyl)phenyl]sulfonyl]-1H-indol-2-yl]methyl]benzoic acid, methyl ester] | 75 | 2110 | 96 | 560 |
| O=C(O)c1ccc(Cc2cc3cc(Cl)ccc3n2S(=O)(=O)c2ccc3ccccc3c2)cc1 [Example 163, 4-[[5-chloro-1-(2-naphthalenylsulfonyl)-1H-indol-2-yl]methyl]benzoic acid] | 34 | 933 | 53 | 427 |
| CC(C)Oc1ccc(S(=O)(=O)n2c(Cc3ccc(C(=O)O)cc3)cc3cc(Cl)ccc32)cc1 [Example 162, 4-[[1-[4-isopropoxy-phenylsulfonyl]-5-(chloro)-1H-indol-2-yl]methyl]benzoic acid] | 40 | 1550 | 56 | 692 |
| O=C(O)c1ccc(Cc2cc3cc(C(F)(F)F)ccc3n2S(=O)(=O)c2ccc(Cl)c(OC(F)F)c2)cc1 [Example 147, 4-[[1-[4-chloro-3-difluoromethoxy-phenylsulfonyl]-5-(trifluoromethyl)-1H-indol-2-yl]methyl]benzoic acid] | 30 | 1100 | 49 | 825 |
| CCS(=O)(=O)n1c(Cc2ccc(C(=O)O)cc2)cc2cc(Cl)ccc21 [Example 176, 4-[[5-chloro-1-(ethylsulfonyl)-1H-indol-2-yl]methyl]benzoic acid] | 21 | > 10000 | 33 | 3390 |
